Results: PubChem BioAssay (NCI)
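Five compound concentrations were applied to cells in 96-well plates for 48 hours; endpoints were derived by simple linear interpolation of the resulting dose-response curve. Abbreviation: GI50, concentration required for 50% inhibition of growth. TGI denotes the concentration required for complete inhibition of growth.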

Experiments:
Assay in all cases: inhibition of tumour cell growth, NCI panel, 48 h
HS 578T breast = system: HS 578T breast
K-562 leukemia = system: K-562 leukemia
NCI/ADR-RES ovarian = system: NCI/ADR-RES ovarian
OVCAR-4 ovarian = system: OVCAR-4 ovarian
RXF 393 renal = system: RXF 393 renal
SNB-19 CNS = system: SNB-19 CNS
SW-620 colon = system: SW-620 colon
UACC-257 melanoma = system: UACC-257 melanoma
DLD-1 colon = system: DLD-1 colon
KM20L2 colon = system: KM20L2 colon

Row | SMILES | GI50 (HS 578T breast) [µM] | TGI (HS 578T breast) [µM] | GI50 (K-562 leukemia) [µM] | TGI (K-562 leukemia) [µM] | GI50 (NCI/ADR-RES ovarian) [µM] | TGI (NCI/ADR-RES ovarian) [µM] | GI50 (OVCAR-4 ovarian) [µM] | TGI (OVCAR-4 ovarian) [µM] | GI50 (RXF 393 renal) [µM] | TGI (RXF 393 renal) [µM] | GI50 (SNB-19 CNS) [µM] | TGI (SNB-19 CNS) [µM] | GI50 (SW-620 colon) [µM] | TGI (SW-620 colon) [µM] | GI50 (UACC-257 melanoma) [µM] | TGI (UACC-257 melanoma) [µM] | TGI (DLD-1 colon) [µM] | TGI (KM20L2 colon) [µM]
1 | CN(Cc1ccccc1)c1ccc(CO)c(Cl)c1 | 35.2 | > 100 | 9.81 | > 100 | 18.9 | 72.6 | 2.54 | 43.6 | 13.1 | > 60.9 | > 84.3 | > 100 | 7.98 | > 100 | 0.432 | 1.69 |  | 
2 | O=C(c1ccccc1)C(CN1CCCCC1)c1ccccc1 (stereo unspecified) | 4.49 | 33.2 | 0.712 | 14.2 | 1.27 | 2.9 | 1.54 | 4.52 | 1.42 | 2.74 | 9.6 | 21.5 | 0.583 | 2.17 | 1.73 | 4.06 |  | 
3 | CSc1nc(NC2OC(COC(C)=O)C(OC(C)=O)C(OC(C)=O)C2OC(C)=O)c2c(n1)OCC2=O (stereo unspecified) |  |  |  | > 100 |  |  |  | > 100 |  |  |  | > 100 |  | > 100 |  | > 100 | > 100 | > 100
4 | CCC(=C/[C@H](C)C/C=C/C(C)=C/[C@@H](C)C(=O)[C@@H](C)[C@H](O)[C@@H](C)CC)/C=C/[C@@H]1OC(=O)C=C[C@H]1C | < 0.01 | 1.95 | < 0.01 | 1.07 | < 0.01 | 2.17 | < 0.01 | 1.5 | < 0.01 | < 0.01 | < 0.01 |  | < 0.01 | 1.43 | < 0.01 |  |  | 
5 | O=Nc1ccc(NO)c2ccccc12 | 28.3 | > 100 | 16.1 | 44.6 | 2.92 | 15.8 | 3.33 | 16.2 | 11.8 | 24.2 | 15.1 | 28.5 | 3.87 | 21.5 | 2.31 | 5.39 |  | 
6 | Nc1nnnn1CCO |  | > 100 |  | > 100 |  | > 100 |  | > 100 |  | > 100 |  | > 100 |  | > 100 |  | > 100 |  | 
7 | NC(=O)/N=C1/CCC2C3CCCC2C13 |  |  |  | > 100 |  |  |  | > 100 |  | > 100 |  | > 100 |  | > 100 |  | > 100 | > 100 | > 100
8 | C#CCSc1cc(Cl)c(C)cc1S(=O)(=O)Nc1nc2ccccc2o1 | 44.2 | > 100 | 69.8 | > 100 | 42.9 | > 100 | 51 | > 100 | 32.9 | > 100 | 44.5 | > 100 | 46.7 | > 100 | 29.4 | 81.6 |  | 
9 | c1ccc(CN2COc3c(ccc4c3OCN(Cc3ccccc3)C4)C2)cc1 | 1.91 | > 100 | 0.445 | > 100 | 0.256 | > 100 | 0.333 | > 100 | 0.41 | > 100 | 1 | > 100 | 0.494 | > 100 | 0.763 | 6.53 |  | 
10 | C#Cc1c(/C=C/C(=O)OCC)ccc2ccccc12 | 27.2 | 83.2 | 6.98 | 41.7 | 21.3 | 59.2 | 20.7 | 69.1 | 22.6 | 69.7 | 36.8 | > 100 | 32.2 | > 100 | 27.4 | > 100 |  | 
11 | C=CC(=O)Nc1cc(C)ccc1Nc1nc(Nc2cc(OC)ncc2C)ncc1C(F)(F)F | 0.869 | 4.86 | 2.56 | > 100 | 1.69 | > 26.5 | 1.34 | > 100 | 0.352 | 1.85 | 0.936 | > 100 | 0.322 | 3.23 | 0.152 | 1.08 |  | 
12 | CCN(CC)CCCNCc1cc(-c2ccccc2)nc2ccccc12 | 16.8 | > 100 | 5.63 | 22.1 | 2.35 | 6.51 | 6.91 | > 100 | 6.99 | 39.9 | 14.2 | > 100 | 2.75 | 21.9 | 5.11 | 18.3 |  | 
13 | O=c1cc(-c2cccc3c2Sc2ccccc2S3)oc(N2CCOCC2)c1 | 3.08 | 19.5 | 5.98 | 30.9 | 12.8 | 42.9 | 11.2 | 31.9 | 1.76 | 8.05 | 13.9 | 33.6 | 12.3 | 26.8 | 13.9 | 27.1 |  | 
14 | CCOC(=O)C1c2[nH]c3ccccc3c2CCN1C(=O)c1ccc(OC)o1 (stereo unspecified) |  | > 10 |  | > 10 |  | > 10 |  | > 10 |  | > 10 |  | > 10 |  | > 10 |  | > 10 |  | 
15 | O=C(Nc1ccncc1)C(=O)c1cn(S(=O)(=O)c2ccc(Cl)cc2)c2ccccc12 | 11.2 | > 100 | 1.08 | > 100 | 0.369 | > 100 | 3.89 | > 70.3 | 3.71 | 35.7 | 5.94 | 51.5 | 1.35 | > 100 | 1.1 | > 100 |  | 
16 | CCN(CC)CC(O)CNc1c2ccc([N+](=O)[O-])cc2nc2cc(OC)c(OC)cc12 (stereo unspecified) | 0.728 | 5.09 | 0.396 | 10.9 | 4.63 | 18.7 | 0.162 | 0.574 | 0.469 | 1.86 | 0.24 | 1.31 | 0.289 | 2.37 | 1.45 | 3.83 |  | 
